# Data reported in US20140314697A1, “Method for Inhibiting Inflammation and Reducing Melanophilin Expression with Glycine Derivatives And the Composition Thereof” (CORUM INC., priority 2013, published 2014).
# Marks after values point to notes of the source that are not given here.
# Experiments:
# [1] = system: Mouse MIP-2 secretion, RAW264.7; assay: Mouse MIP-2 production in Raw264.7 cells (ELISA); type: cell-based; settings: for Mouse MIP-2 Content, Average / Mouse MIP-2 Content, Entry 2 / Mouse MIP-2 Content, Entry 1 / Mouse MIP-2 Content, Entry 3: Raw264.7, LPS & IFN-r, 24 hours, Positive Control 100%; for Mouse MIP-2 Content, Entry 2: passage N + 3; for Mouse MIP-2 Content, Entry 1: passage N + 5; for Mouse MIP-2 Content, Entry 3: passage N + 6
# Method: Murine macrophage cell line RAW264.7 (BCRC No. 60001)
# Complete Medium (as negative control): DMEM medium with 10% Fetal Bovine Serum
# Testing Medium (as positive control): 100 ng/mL LPS and 10 ng/mL IFN-r in Complete Medium
# a. Rinse the confluent Raw264.7 cells with sterile D-PBS then trypsinize all cells and perform cell counting.
# b. Dilute the cell density to 2E+05/mL and seed 0.1 mL cell liquid (equals to 2E+04 cells) each well in 96-well plate.
# c. Incubate Raw264.7 cells at 37° C., 5% CO2 for about 24 hours.
# d. Prepared 2× dosing solution of testing material in 2× Testing Medium (means w/ 200 ng/mL ? LPS&20 ng/mL ? IFN-r): 0.8%, 0.4%, 0.2%, 0.1% (Final testing material: 0.4%, 0.2%, 0.1%, 0.05%)
# e. […] Add 100 μL controls and testing materials in different concentrations into Raw264.7 cells in 96 well plates. Controls/Test materials should be tested at least three wells.
# f. Incubate Raw264.7 cells at 37° C., 5% CO2 for about 24 hours.
# g. After incubating for about 24 hours, collect the supernatant of controls and testing materials.
# h. Determine the IL-6/MIP-2 content of the supernatant by R&D ELISA kit as mentioned previously.
# age spot = assay: Skin whitening test: age spot photography, Reverse Photo Engineering quantitative analysis; type: in vivo, human; settings: for Age Spot Reduction - Reverse Photo Engineering Data, Max % Improvement / Age Spot Reduction - Reverse Photo Engineering Data, % Difference: 0.2% Ac-Gly-β-Ala sample
# Method: In this example, the in-vivo skin test is finished by AMA Laboratories USA. The skin color changes are evaluated with Minolta chromameter color computer system. The Age spot photography is evaluated with Reverse Photo Engineering Quantitative Analysis.
# In terms of age spot photography, the participants were 5 women aged 38-49 years old, wherein four of the participants were caucasian, and one was Asian. The participants were tested before (baseline), and after using 14, 28, 56 days with high-resolution digital camera, then Reverse Photo Engineering quantitative analysis to perform the age spot change evaluation.
compound,measurement,setting,value
"CC(=O)NCC(=O)NCCC(=O)O [Ac-Gly-β-Ala, 3-(2-acetylamino-acetylamino)-propionic acid]","MIP-2 production, dose dependence","[1]; 0.05%-0.4%, Raw264.7",inhibited MIP-2 production in dose-dependent manner
same,"Mouse MIP-2 Content, Average",[1]; 0.05%,78%
same,"Mouse MIP-2 Content, Entry 2",[1]; 0.05%,79%
same,"Mouse MIP-2 Content, Entry 1",[1]; 0.05%,75%
same,"Mouse MIP-2 Content, Entry 3",[1]; 0.05%,81%
same,"Mouse MIP-2 Content, Average",[1]; 0.10%,65%
same,"Mouse MIP-2 Content, Entry 2",[1]; 0.10%,66%
same,"Mouse MIP-2 Content, Entry 1",[1]; 0.10%,64%
same,"Mouse MIP-2 Content, Entry 3",[1]; 0.10%,65%
same,"Mouse MIP-2 Content, Average",[1]; 0.20%,48%
same,"Mouse MIP-2 Content, Entry 2",[1]; 0.20%,44%
same,"Mouse MIP-2 Content, Entry 1",[1]; 0.20%,50%
same,"Mouse MIP-2 Content, Entry 3",[1]; 0.20%,48%
same,"Mouse MIP-2 Content, Average",[1]; 0.40%,31%
same,"Mouse MIP-2 Content, Entry 2",[1]; 0.40%,32%
same,"Mouse MIP-2 Content, Entry 1",[1]; 0.40%,21%
same,"Mouse MIP-2 Content, Entry 3",[1]; 0.40%,38%
same,"Age Spot Reduction - Reverse Photo Engineering Data, Max % Improvement",age spot; Day 14,−51.67%
same,"Age Spot Reduction - Reverse Photo Engineering Data, % Difference",age spot; Day 14 vs baseline,−41.47%*
same,"Age Spot Reduction - Reverse Photo Engineering Data, Max % Improvement",age spot; Day 28,−80.63%
same,"Age Spot Reduction - Reverse Photo Engineering Data, % Difference",age spot; Day 28 vs baseline,−63.37%
same,"Age Spot Reduction - Reverse Photo Engineering Data, Max % Improvement",age spot; Day 56,−87.40%
same,"Age Spot Reduction - Reverse Photo Engineering Data, % Difference",age spot; Day 56 vs baseline,−73.07%*
same,quantitative analyzed data for the age spot change evaluation,age spot; sample containing 0.2% Ac-Gly-β-Ala,significantly decreased
